Assay results: ChEMBL document CHEMBL1201862, “PubChem BioAssay data set” (2004)
Active and inactive are the calls of the source.

Legend:
[1] = viability loss in THP-1 monocytes – THP-1 cells, cytotoxicity control for Vif-APOBEC3G degradation inhibitor project, dose response (AID 1117359); format: functional; conditions: THP-1
[2] = OVCAR-3 cell viability loss – plate reader, dry powder samples, PAX8 inhibitor project, dose response (AID 743044); format: functional, cell-based
[3] = A2780 cell killing – plate reader, dry powder samples, cytotoxicity control, dose response (AID 743046); format: functional, cell-based
Paired box protein Pax-8 = Paired box protein Pax-8 (Homo sapiens, UniProt Q06710); assay: PAX8 transcriptional activity inhibition in RMG-I – RMG-I cells, luciferase, cherry-pick, dose response (AID 687027); format: functional, cell-based;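 also: luciferase reporter driven by Pax8 target thyroperoxidase promoter measured by SteadyGlo luminescence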
Chain of Paired box protein Pax-8 (Q06710 whole entry): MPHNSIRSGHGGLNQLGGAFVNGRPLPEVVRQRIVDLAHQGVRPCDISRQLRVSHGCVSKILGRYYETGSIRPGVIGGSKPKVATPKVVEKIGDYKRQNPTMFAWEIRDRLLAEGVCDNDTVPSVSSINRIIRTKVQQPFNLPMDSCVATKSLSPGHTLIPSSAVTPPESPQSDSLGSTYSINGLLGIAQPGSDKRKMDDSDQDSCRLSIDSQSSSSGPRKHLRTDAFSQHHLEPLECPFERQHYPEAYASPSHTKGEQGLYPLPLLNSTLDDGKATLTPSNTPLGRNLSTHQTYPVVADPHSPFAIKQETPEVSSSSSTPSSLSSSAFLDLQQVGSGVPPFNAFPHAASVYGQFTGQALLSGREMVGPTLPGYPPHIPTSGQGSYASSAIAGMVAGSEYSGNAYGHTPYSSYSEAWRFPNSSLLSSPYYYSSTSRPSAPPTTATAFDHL

[4] = OVCAR8 cell viability loss – plate reader, dry powder samples, PAX8 project, dose response (AID 743197); format: functional, cell-based; conditions: OVCAR-8
[5] = toxicity toward immortalized ovarian surface epithelium – cell-based, plate reader, dry powder samples, cytotoxicity control for PAX8 inhibitor project, dose response (AID 743045); format: functional
[6] = IGROV1 cell killing – plate reader, dry powder samples, PAX8 inhibitor project, dose response (AID 743043); format: functional, cell-based; conditions: IGROV-1
[7] = P. falciparum Dd2 growth inhibitors, dose response, SYBR Green, cherry-picked samples (AID 1159567); format: functional, cell-based
[8] = growth inhibition of yeast DHODH-expressing 3D7 parasites – SYBR Green, dry powder samples, dose response (AID 1159570); format: functional, cell-based;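 also: parasite growth measured after 72 hours of compound exposure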
[9] = toxicity to human HepG2 hepatoma cells – cell-based, plate reader, dry powder samples, cytotoxicity control, dose response (AID 1159569); format: functional;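 also: inhibitor potency with signal falling toward the positive control level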
[10] = Dd2 malaria parasite growth inhibition potency – SYBR Green, dry powder samples, dose response (AID 1159566); format: functional, cell-based;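 also: potency for growth inhibition with lower SYBR green DNA signal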
[11] = growth inhibition of PfATP4-mutant resistant parasites – NITD609-resistant line, SYBR Green, dry powder, dose response (AID 1159571); format: functional, cell-based;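 also: parasites synchronized at ring stage by sorbitol before testing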
[12] = human cervical cancer cell viability loss – 24 h, plate reader, dry powder, cytotoxicity control, dose response (AID 686928); format: functional, cell-based; conditions: HeLa
[13] = luciferase reporter signal suppression in cells – H4 neuroglioma cells, luminescence, dose response (AID 1990); format: functional, cell-based
[14] = inhibition of ADAM10 peptide cleavage – biochemical, FRET peptide substrate, recombinant human ADAM10, selectivity assay for ADAM17 exosite inhibitor project, dose response (AID 743259);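 also: ADAM10 enzyme cleaving a FRET peptide substrate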
[15] = Luminescence Cell-Based Dose Response HTS to Identify Inhibitors of 5'UTR Stem-Loop Driven Prion Protein mRNA Translation in H4 Neuroglioblastoma Cells. [Related pubchem assays: 1827 (Project Summary), 1813 (Primary HTS)]; format: functional
[16] = alpha-synuclein stem-loop luciferase translation blockers – H4 neuroglioma cells, luminescence, confirmation (AID 1988); format: functional, cell-based
[17] = target: Disintegrin and metalloproteinase domain-containing protein 17 (Homo sapiens, UniProt P78536); assay: exosite inhibitors of ADAM17, dose response, biochemical (AID 743260)
Chain of Disintegrin and metalloproteinase domain-containing protein 17 (P78536 whole entry, the tested form may be a part): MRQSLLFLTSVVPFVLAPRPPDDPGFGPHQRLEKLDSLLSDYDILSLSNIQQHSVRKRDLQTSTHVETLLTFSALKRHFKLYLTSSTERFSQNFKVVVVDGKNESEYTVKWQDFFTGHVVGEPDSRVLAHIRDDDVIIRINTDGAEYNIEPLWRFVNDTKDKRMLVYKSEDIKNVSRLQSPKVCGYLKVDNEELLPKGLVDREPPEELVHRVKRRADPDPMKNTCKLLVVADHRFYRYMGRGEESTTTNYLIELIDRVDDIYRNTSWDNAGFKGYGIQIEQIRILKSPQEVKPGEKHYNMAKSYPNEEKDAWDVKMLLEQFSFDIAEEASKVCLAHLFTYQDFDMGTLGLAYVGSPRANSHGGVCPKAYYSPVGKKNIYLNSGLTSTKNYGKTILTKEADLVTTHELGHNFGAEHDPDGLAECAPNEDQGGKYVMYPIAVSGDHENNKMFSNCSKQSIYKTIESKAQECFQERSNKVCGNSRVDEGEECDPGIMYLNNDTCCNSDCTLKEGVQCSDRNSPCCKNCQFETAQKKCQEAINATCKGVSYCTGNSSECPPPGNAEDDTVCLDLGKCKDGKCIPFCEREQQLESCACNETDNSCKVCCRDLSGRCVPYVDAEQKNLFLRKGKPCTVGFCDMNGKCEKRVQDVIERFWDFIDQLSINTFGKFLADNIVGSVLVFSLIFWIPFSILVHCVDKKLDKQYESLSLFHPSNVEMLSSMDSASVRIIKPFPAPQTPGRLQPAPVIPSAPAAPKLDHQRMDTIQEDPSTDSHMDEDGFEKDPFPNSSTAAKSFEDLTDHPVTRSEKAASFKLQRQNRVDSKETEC

Q: With `CCN(c1ccccc1)S(=O)(=O)c1ccc(C(=O)NNC(=O)c2ccccc2F)cc1` as the compound, how does the CC50 [1] read?
A: Its CC50 is 23.5 µM (active).

Q: Which AC50 [2] does the source give for `C[C@@H]1CCCCO[C@@H](CN(C)Cc2ccc(Cl)c(Cl)c2)[C@H](C)CN([C@@H](C)CO)C(=O)c2cc(NC(=O)CCC(F)(F)F)ccc2O1` here?
A: Its AC50 is 16.1 µM (active).

Q: What about the AC50 [3] of the same compound?
A: Its AC50 is 27.3 µM (active).

Q: And the AC50 (Paired box protein Pax-8)?
A: Its AC50 is 9.32 µM (active).

Q: And the AC50 [4]?
A: The AC50 was 17.1 µM (active).

Q: What about the AC50 [5] of the same compound?
A: Its AC50 is 23.4 µM (active).

Q: What about the AC50 [6] of the same compound?
A: The AC50 was 21.9 µM (active).

Q: Which results are given for `C[C@H]1CN([C@@H](C)CO)C(=O)c2ccccc2-c2ccccc2CO[C@H]1CN(C)Cc1ccc(-c2ccccc2)cc1`?
A: AC50 [7]: 1.59 µM (active); AC50 [8]: 3.92 µM (active); AC50 [9]: 22.2 µM (active); AC50 [10]: 1.11 µM (active); AC50 [11]: 1.19 µM (active)

Q: With `Cc1ccc2cc3c(NC(=O)c4ccco4)nn(C)c3nc2c1` as the compound, how does the AC50 [12] read?
A: The AC50 was 179 µM (active).

Q: And the AC50 ([12]; 24 h)?
A: The AC50 was 121 µM (active).

Q: Which EC50 [13] does the source give for `CCNC(=S)N/N=C/c1cn(Cc2ccccc2F)c2ccccc12` here?
A: The EC50 was 15.9 µM (active).

Q: And the IC50 [14]?
A: Its IC50 is > 69.5 µM (inactive).

Q: What about the EC50 [15] of the same compound?
A: Its EC50 is 24.4 µM (active).

Q: What about the EC50 [16] of the same compound?
A: The EC50 was 19.7 µM (active).

Q: What about the IC50 [17] of the same compound?
A: The IC50 was > 69.5 µM (inactive).
